Test results from article PMC6421105 (Bioorganic & medicinal chemistry, 2019).

Experiments:
Vero cells = assay type: cell-based; settings: for Cytotoxicity ED50: treatment for 72 h; for Cytotoxicity at 15 µM / Cytotoxicity at 20 µM: 72 h
T. cruzi (amastigotes) = experiment: T. cruzi amastigote assay; assay type: cell-based, Trypanosoma cruzi; settings: for IC50: Trypanosoma cruzi, Vero, 72 h, read-out: T. cruzi (amastigotes) ED50; for Antiparasitic activity against intracellular T. cruzi (in words): amastigotes
intracellular T. cruzi = settings: racemic mixture; cited from earlier work
truncated TcSQS = settings: soluble enzyme cloned and expressed in Escherichia coli; cited from earlier work
[1] = tested on: mitochondrial and glycosomal TcSQS (wild type); settings: membrane protein; cited from earlier work

With “(2-(4-Phenoxyphenoxy)ethyl)(trifluoromethyl)selane [Compound 11]” as the molecule, how does the “Cytotoxicity ED50” value (Vero cells) read?
Its value is > 20 µM.

For `O=C(Cn1ccnc1[N+](=O)[O-])NCc1ccccc1` [benznidazole, reference compound], which IC50 (T. cruzi (amastigotes)) is on record?
The IC50 was 2.48 ± 0.45 µM.

Which “ED50 against intracellular T. cruzi” value (intracellular T. cruzi) does the source give for `N#C[Se]CC1Cc2ccc(Oc3ccccc3)cc2O1` (racemic) [(±)-8] here?
The value was 0.083 µM.

And the IC50 (T. cruzi (amastigotes))?
Its IC50 is 0.0939 ± 0.025 µM.

For `N#C[Se]CCOc1ccc([N+](=O)[O-])cc1` [Compound 22, 4-Nitrophenoxyethyl selenocyanate], which “Cytotoxicity at 15 µM” value (Vero cells) is on record?
Its value is “^**cytotoxic at 20 µM, 15 µM”.

What about the “Cytotoxicity at 20 µM” value (Vero cells) of the same molecule?
The value was “^**cytotoxic at 20 µM, 15 µM”.

And the IC50 (T. cruzi (amastigotes))?
The IC50 was 3.87 ± 1.3 µM.

With `N#CSCCOc1ccccc1Oc1ccccc1` [Compound 44, 2-Phenoxyphenoxyethyl thiocyanate] as the molecule, how does the IC50 (T. cruzi (amastigotes)) read?
Its IC50 is > 10 µM.

What about the “Antiparasitic activity against intracellular T. cruzi (in words)” value (“Antiparasitic activity” below) (T. cruzi (amastigotes)) of the same molecule?
Its value is “free of anti-T. cruzi activity”.

For `COc1ccc(OCC[Se]C#N)cc1` [Compound 20, 4-Methoxyphenoxyethyl selenocyanate], which “Cytotoxicity at 15 µM” value (Vero cells) is on record?
Its value is “^**cytotoxic at 20 µM, 15 µM”.

What about the “Cytotoxicity at 20 µM” value (Vero cells) of the same molecule?
The value was “^**cytotoxic at 20 µM, 15 µM”.

And the IC50 (T. cruzi (amastigotes))?
Its IC50 is > 10 µM.

And the “T. cruzi (amastigotes) inhibition at 6 µM” value (T. cruzi (amastigotes); at 6 µM)?
The value was “no inhibition”.

For `FC(F)(F)[Se]CCOc1cccc(Oc2ccccc2)c1` [Compound 12, (2-(3-Phenoxyphenoxy)ethyl)(trifluoromethyl)selane], which IC50 (T. cruzi (amastigotes)) is on record?
The IC50 was > 1 µM.

Which “Cytotoxicity ED50” value (Vero cells) does the source give for “(2-(3-Phenoxyphenoxy)ethyl)(trifluoromethyl)sulfane [Compound 10]” here?
The value was > 20 µM.

What about the “T. cruzi (amastigotes) % inhibition at 1.0 µM” value (T. cruzi (amastigotes); at 1.0 µM) of the same molecule?
The value was 6.7%.

Which results are given for `N#CCCCOc1ccc(Oc2ccccc2)cc1` [Compound 14, 3-(4-Phenoxyphenoxy)propyl cyanide]?
IC50 (T. cruzi (amastigotes)): > 10 µM; Antiparasitic activity against intracellular T. cruzi (in words) (T. cruzi (amastigotes)): inactive

Which “Inhibition of truncated TcSQS (in words)” value (truncated TcSQS) does the source give for `N#CSCCOc1ccc(Oc2ccccc2)cc1` [WC-9, 4-Phenoxyphenoxyethyl Thiocyanate] here?
The value was “inactive”.

And the “Inhibition of TcSQS enzymatic activity (in words)” value [1]?
Its value is “non-competitive nanomolar inhibitor”.

Which results are given for `N#C[Se]CCOc1ccccc1` [Compound 21, Phenoxyethyl selenocyanate]?
Cytotoxicity at 20 µM (Vero cells): ^**cytotoxic at 20 µM; IC50 (T. cruzi (amastigotes)): > 10 µM

With `N#C[Se]CCOc1ccccc1Oc1ccccc1` [Compound 43, 2-Phenoxyphenoxyethyl selenocyanate] as the molecule, how does the IC50 (T. cruzi (amastigotes)) read?
Its IC50 is > 10 µM.

And the “Antiparasitic activity” value (T. cruzi (amastigotes))?
Its value is “free of anti-T. cruzi activity”.

Which IC50 (T. cruzi (amastigotes)) does the source give for `FC(F)(F)SCCOc1ccc(Oc2ccccc2)cc1` [Compound 9, (2-(4-Phenoxyphenoxy)ethyl)(trifluoromethyl)sulfane] here?
The IC50 was > 10 µM.

Which IC50 (T. cruzi (amastigotes)) does the source give for `N#CCCOc1ccc(Oc2ccccc2)cc1` [Compound 13, 4-Phenoxyphenoxyethyl cyanide] here?
Its IC50 is > 10 µM.

And the “Antiparasitic activity” value (T. cruzi (amastigotes))?
The value was “inactive”.
